Source: patent US6656911B2, “Serine protease inhibitors” (Cortech, Inc., priority 1994, dated 2003)

Assays:
[1] = target: T1, human neutrophil elastase (HNE) (Homo sapiens, UniProt P08246); assay: HNE Ki of CE compounds, tested as described in WO 96/16080; assay type: biochemical; conditions: read-out: HNE Ki
T1 sequence (P08246 30-267): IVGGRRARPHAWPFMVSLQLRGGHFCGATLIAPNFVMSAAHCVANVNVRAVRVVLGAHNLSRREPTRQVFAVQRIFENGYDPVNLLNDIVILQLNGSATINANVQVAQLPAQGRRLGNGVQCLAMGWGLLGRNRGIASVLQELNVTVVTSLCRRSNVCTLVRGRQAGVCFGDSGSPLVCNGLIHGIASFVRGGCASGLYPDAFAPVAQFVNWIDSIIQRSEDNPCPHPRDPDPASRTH

[2] = test system: polymorphoneucleocyte (PMN); assay: Extracellular Matrix (ECM) degradation assay; assay type: cell-based; conditions: PMN's stimulated with opsonized zymosan, 4 hr at 37° C.; for ECM DATA % Inhibition 1 uM / inhibition at 1 µM: 1 uM inhibitor; for ECM DATA % Inhibition 5 uM / inhibition at 5 µM: 5 uM inhibitor
Description: Forty-eight well plates on which extracellular matrix had been established were supplied to Cortech by Dr. Simon's group at the State University of New York at Stony Brook. Briefly, the plates were prepared as follows: R22 rat heart smooth muscle cells were seeded into wells at 2.5×10^4 cells/cm. The cells were fed every 4 days with Eagle's Minimal Essential Media supplemented with fetal bovine serum, tryptose phosphate broth, cefotaxime and streptomycin. At confluence, daily supplements of 50 ug/ml ascorbic acid were added for 8 to 10 days during the synthesis of the ECM layer. [^35S]sulfate and [^3H]proline were also added to the culture media to incorporate radiolabel into the matrix. Cells were later lysed with 25 mM NH4OH. Plates were washed three times with water and once with phosphate-buffered saline containing 0.02% NaN3. Plates were stored at 4° C. until use.
Matrix degradation assays were performed as follows: 0.40 ml of Hanks balance salt solution (HBSS) containing 1 or 5 uM test inhibitor (final concentration; diluted from DMSO stock solution; <2% DMSO final concentration) was added to the wells. After 30 minutes, 50 ul of a polymorphoneucleocyte (PMN) suspension was added resulting in 5×10^5 cells/well. PMN's were stimulated with opsonized zymosan. Zymosan particles were washed and suspended in 0.5 ml human serum for 1 hr at 37° C., vortexing every 15 min. The particles were then washed three times with HBSS and added to wells at a ratio of 10 particles/PMN in a volume of 50 ul. After a 4 hr incubation at 37° C., a 100 ul aliquot of the supernatant was withdrawn for scintillation counting. Following removal of the remaining supernatant, the residual ECM was solubilized with 0.5 ml 2M NaOH. The amount of tritium in this solubilized ECM was accessed by scintillation. ECM degradation data are expressed as (soluble counts released/total ECM counts)—(basal counts released without PMN's/total ECM counts).

[3] = Blood level screening after oral dose; assay type: in vivo, Sprague-Dawley rats; conditions: male, Sprague-Dawley, plasma, rat, oral gavage 10 mg/kg
Description: The inhibitors were dissolved or suspended in polyethylene glycol (PEG), PEG-400 or PEG:H2O:EtOH at a concentration of 10 mg/ml. Unfasted male Sprague-Dawley rats were given an oral dose of this solution by gavage. Rats received 10 mg inhibitor/kg body weight in a volume of 1 ml/kg. After 1,3 or 6 hr., the rats were killed with an overdose of urethane (2.5 g/kg; i.p.) and the blood collected in a heparinized tube via cardiac puncture. Red blood cells were separated from the plasma by centrifugation.
Depending on the inhibitor, one of four organics (ethyl acetate, toluene, isopropyl ether or methyl t-butyl ether) was used to extract the compound from the plasma. Inhibitor concentrations were measured by HPLC or LC/MS analysis.

With `Cc1cccc(Cc2nnc(C(=O)C(NC(=O)CN3C(=O)C(N)N=C(c4ccccc4Cl)c4cc(Cl)ccc43)C(C)C)o2)c1` [CE2229, (R,S)-3-Amino-2-oxo-5-(2-chlorophenyl)-1,4-(2′-chlorobenzodiazepine)-N-[1-(2-[5-(3-methylbenzyl)-1,3,4-oxadiazolyl]carbonyl)-2-(R,S)-methylpropyl]acetamide] the Ki [1] was 9.5 nM, the “ECM DATA % Inhibition 1 uM” value [2] was 31.25% and the “ECM DATA % Inhibition 5 uM” value [2] was 48.2%.

Compound `Cc1cccc(Cc2nnc(C(=O)[C@@H](NC(=O)Cn3c(-c4ccccn4)nc4ccccc43)C(C)C)o2)c1` [CE2234, 2-(2-Pyridyl)-benzimidazole-N-[1-(2-[5-(3-methylbenzyl)-1,3,4-oxadiazolyl]carbonyl)-2-(S)-methylpropyl]acetamide] has a Ki [1] of 796 nM, an inhibition at 1 µM [2] of 39.7% and an inhibition at 5 µM [2] of 35%.

For `Cc1ccc(C2=NCC(=O)N(CC(=O)N[C@H](C(=O)c3nnc(Cc4cccc(C)c4)o3)C(C)C)c3ccccc32)cc1` [CE2242, 2-Oxo-5-phenyl-1,4-(4′-methylbenzodiazepine)-N-[1-(2-[5-(3-methylbenzyl)-1,3,4-oxadiazolyl]carbonyl)-2-(S)-methylpropyl]acetamide], the Ki [1] was 27 nM, the “ECM DATA % Inhibition 1 uM” value [2] was 29.4% and the “ECM DATA % Inhibition 5 uM” value [2] was 40.7%.

With `Cc1cccc(Cc2nnc(C(=O)C(NC(=O)CN3C(=O)N(Cc4ccccc4)C(=O)[C@@H]3Cc3ccccc3)C(C)C)o2)c1` (stereo partly drawn) [CE2191, 1-Benzyl-4-(S)-benzyl-2,5-imidazolidinedione-N-[1-(2-[5-(3-methylbenzyl)-1,3,4-oxadiazolyl]carbonyl)-2-(R,S)-methylpropyl]acetamide] the Ki [1] was 85 nM, the “ECM DATA % Inhibition 1 uM” value [2] was 29.35% and the “ECM DATA % Inhibition 5 uM” value [2] was 30.5%.

For `COc1cc2c(cc1OC)N(CC(=O)NC(C(=O)c1nnc(Cc3cccc(C)c3)o1)C(C)C)C(=O)C(N)N=C2C` [CE2235, (R,S)-3-Amino-2-oxo-5-methyl-1,4-(2′,3′-dimethoxybenzodiazepine)-N-[1-(2-[5-(3-methylbenzyl)-1,3,4-oxadiazolyl]carbonyl)-2-(R,S)-methylpropyl]acetamide], the Ki [1] was 9.5 nM, the “ECM DATA % Inhibition 1 uM” value [2] was 19.75% and the “ECM DATA % Inhibition 5 uM” value [2] was 13.25%.

For `Cc1cccc(Cc2nnc(C(=O)[C@@H](NC(=O)CN3C(=O)N[C@H](c4ncc[nH]4)C3=O)C(C)C)o2)c1` [CE2257, 4-(R)-(2-Imidazolyl)-2,5-imidazolidinedione-N-[1-(2-[5-(3-methylbenzyl)-1,3,4-oxadiazolyl]carbonyl)-2-(S)-methylpropyl]acetamide], the Ki [1] was 30 nM, the “ECM DATA % Inhibition 1 uM” value [2] was 48.3% and the “ECM DATA % Inhibition 5 uM” value [2] was 61.4%.

With “(R,S)-3-Amino-2-oxo-5-methyl-1,4-(2′,3′-methylenedioxy-benzodiazepine)-N-[1-(2-[5-(3-methylbenzyl)-1,3,4-oxadiazolyl]carbonyl)-2-(R,S)-methylpropyl]acetamide [CE2225]” the Ki [1] was 8.2 nM, the “ECM DATA % Inhibition 1 uM” value [2] was 30.85% and the “ECM DATA % Inhibition 5 uM” value [2] was 43.45%.

With `Cc1cccc(Cc2nnc(C(=O)[C@@H](NC(=O)[C@@H]3CCCN3C(=O)[C@@H](NC(=O)c3cccnc3)C(C)C)C(C)C)o2)c1` [CE2161, (Pyridyl-3-carbonyl)-L-valyl-N-[1-(2-[5-(3-methylbenzyl)-1,3,4-oxadiazolyl]carbonyl)-2-(S)-methylpropyl]-L-prolinamide] the Ki [1] was 0.082 nM, the inhibition at 1 µM [2] was 25% and the inhibition at 5 µM [2] was 55%.

For `Cc1cccc(Cc2nnc(C(=O)[C@@H](NC(=O)CN3C(=O)N(Cc4ccccc4)C(=O)[C@H]3Cc3ccccc3)C(C)C)o2)c1` [CE2151, 1-Benzyl-4-(R)-benzyl-2,5-imidazolidinedione-N-[1-(2-[5-(3-methylbenzyl)-1,3,4-oxadiazolyl]carbonyl)-2-(S)-methylpropyl]acetamide], the Ki [1] was 59 nM, the inhibition at 1 µM [2] was 14.2% and the inhibition at 5 µM [2] was -8.3%.

Compound `Cc1cccc(Cc2nnc(C(=O)C(NC(=O)CN3C(=O)C(c4ccccc4)N(CCN4CCOCC4)C3=O)C(C)C)o2)c1` [CE2192, 1-(N-Morpholinoethyl)-5-(R,S)-phenyl-2,4-imidazolidinedione-N-[1-(2-[5-(3-methylbenzyl)-1,3,4-oxadiazolyl]carbonyl)-2-(R,S)-methylpropyl]acetamide] has a Ki [1] of 7.3 nM, an inhibition at 1 µM [2] of 40.8% and an inhibition at 5 µM [2] of 49.7%.

In the case of “(R,S)-3-Amino-2-oxo-5-phenyl-1,4-(2′-chlorobenzodiazepine)-N-[1-(2-[5-(3-methylbenzyl)-1,3,4-oxadiazolyl]carbonyl)-2-(R,S)-methylpropyl]acetamide [CE2223]”, the Ki [1] is reported as 0.93 nM, the “ECM DATA % Inhibition 1 uM” value [2] is reported as 34.15% and the “ECM DATA % Inhibition 5 uM” value [2] is reported as 36.15%.

In the case of `COc1ccccc1C1=NCC(=O)N(CC(=O)N[C@H](C(=O)c2nnc(Cc3cccc(C)c3)o2)C(C)C)c2ccccc21` [CE2250, 2-Oxo-5-(2-methoxyphenyl)-1,4-benzodiazepine-N-[1-(2-[5-(3-methylbenzyl)-1,3,4-oxadiazolyl]carbonyl)-2-(S)-methylpropyl]acetamide], the Ki [1] is reported as 6.9 nM, the inhibition at 1 µM [2] is reported as 27.4% and the inhibition at 5 µM [2] is reported as 48.6%.

For `CC1=NC(N)C(=O)N(CC(=O)NC(C(=O)c2nnc(Cc3cccc(C)c3)o2)C(C)C)c2ccccc21` [CE2226, (R,S)-3-Amino-2-oxo-5-methyl-1,4-benzodiazepine-N-[1-(2-[5-(3-methylbenzyl)-1,3,4-oxadiazolyl]carbonyl)-2-(R,S)-methylpropyl]acetamide], the Ki [1] was 10.3 nM, the inhibition at 1 µM [2] was 27.6% and the inhibition at 5 µM [2] was 52.2%.

In the case of `Cc1cccc(Cc2nnc(C(=O)[C@@H](NC(=O)CN3C(=O)N[C@H](Cc4ccc(O)cc4)C3=O)C(C)C)o2)c1` [CE2255, 4-(R)-(4-Hydroxybenzyl)-2,5-imidazolidinedione-N-[1-(2-[5-(3-methylbenzyl)-1,3,4-oxadiazolyl]carbonyl)-2-(S)-methylpropyl]acetamide], the Ki [1] is reported as 18 nM, the “ECM DATA % Inhibition 1 uM” value [2] is reported as 20.7% and the “ECM DATA % Inhibition 5 uM” value [2] is reported as 42%.

For `Cc1cccc(Cc2nnc(C(=O)[C@@H](NC(=O)CN3C(=O)NC(c4ccncc4)(N4C(=O)CCC4=O)C3=O)C(C)C)o2)c1` (stereo partly drawn) [CE2206, [4-(R,S)-(4-pyridyl)-4-(R,S)-N-succinimidyl-1-2,5-imidazolidinedione-N-[1-2-[5-(3-methylbenzyl)-1,3,4-oxadiazolyl]carbonyl)-2-(S)-methylpropyl]acetamide], the Ki [1] was 8.7 nM, the “ECM DATA % Inhibition 1 uM” value [2] was 47.4% and the “ECM DATA % Inhibition 5 uM” value [2] was 62.3%.

With “(R,S)-3-Amino-2-oxo-5-methyl-1,4-(1-thiophenodiazepine)-N-[1-(2-[5-(3-methylbenzyl)-1,3,4-oxadiazolyl]carbonyl)-2-(S)-methylpropyl]acetamide [CE2236]” the Ki [1] was 7.1 nM, the “ECM DATA % Inhibition 1 uM” value [2] was 31.9% and the “ECM DATA % Inhibition 5 uM” value [2] was 31.75%.

Compound `Cc1cccc(Cc2nnc(C(=O)[C@@H](NC(=O)Cn3c(-c4ccc(F)cc4)ncc(NC(=O)OCc4ccccc4)c3=O)C(C)C)o2)c1` [CE2095, 2-[5-[(Benzyloxycarbonyl)amino]-6-oxo-2-(4-fluorophenyl)-1,6-dihydro-1-pyrimidinyl]-N-[1-(2-[5-(3-methylbenzyl)-1,3,4-oxadiazolyl]carbonyl)-(S)-2-methylpropyl]acetamide] has a Ki [1] of 0.21 nM, an inhibition at 1 µM [2] of 60.4% and an inhibition at 5 µM [2] of 55.6%.

Compound `Cc1cccc(Cc2nnc(C(=O)[C@@H](NC(=O)CN(C(=O)[C@@H](NC(=O)OCc3ccccc3)C(C)C)c3ccccc3)C(C)C)o2)c1` [CE2232, Benzyloxycarbonyl-L-valyl-N-(phenyl)glycyl-N-[1-(2-[5-(3-methylbenzyl)-1,3,4-oxadiazolyl]carbonyl)-2-(S)-methylpropyl]amide] has a Ki [1] of 0.15 nM, a concentration at 1 h ([3]; 1 hr, read-out: Plasma Levels (μM) 1 hr) of 0.44 µM and a concentration at 3 h ([3]; 3 hr, read-out: Plasma Levels (μM) 3 hr) of 0.44 µM. For the same compound, the concentration at 6 h ([3]; 6 hr, read-out: Plasma Levels (μM) 6 hr) was 0.26 µM.
